This experiment relates to Endothelial cell. Kind of experiment: Binding affinity to DHEA receptor in bovine aortic endothelial cells exposed to UV for 15 mins at 5 nM after 1 hr by chemiluminescence. The conditions noted are these: Bos taurus. The format is cell-based.

Molecules are shown by their SMILES. Active and inactive are the calls of the source. The rule behind the calls is not given here.

As to `O=C(CCCC[C@@H]1SC[C@@H]2NC(=O)N[C@@H]21)NCCCC[C@H](NC(=O)c1ccc(C(=O)c2ccccc2)cc1)C(=O)O`, the result was inactive.

In the case of `C[C@]12CC[C@H](O)CC1=CC[C@@H]1[C@@H]2CC[C@]2(C)/C(=N/OCC(=O)NCCCCCCNC(=O)[C@H](CCCCNC(=O)CCCC[C@@H]3SC[C@@H]4NC(=O)N[C@@H]43)NC(=O)c3ccc(C(=O)c4ccccc4)cc3)CC[C@@H]12`, the outcome was Active.
